Experimental data from patent publication US20240109925A1, “Enhanced Anti-Proliferative and Antitumor Immune Effects of Mitochondria-Targeted Hydroxyurea” (The Medical College of Wisconsin, Inc., priority 2021, published 2024).

What was measured:
[1] = test system: mitochondrial complex III; experiment: Complex III-dependent oxygen consumption (OCR), Seahorse XF-96, HCT116 cells; assay type: cell-based, human; conditions: 24 hr, HCT116, n = 4
Outline: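 HCT116 cells were treated with compound for 24 hr, then acutely permeabilized. OCR was read on a Seahorse XF-96 in mannitol/sucrose buffer. Complex I: 10 mM pyruvate/1.5 mM malate plus 10 mM malonate. Complex III: 0.5 mM duroquinol with […] and 10 mM malonate. IC50 was fitted to rotenone- or antimycin A-inhibitable OCR.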

[2] = test system: MiaPaCa-2 human pancreatic cancer cells; experiment: Cell proliferation, IncuCyte Live-Cell Analysis system; assay type: cell-based
From the text: FIG. 7. Effects of HU and Mito10-HU on proliferation of MiaPaCa-2 human pancreatic cancer cells; MiaPaCa-2 cells treated with HU or Mito10-HU were monitored in the IncuCyte Live-Cell Analysis system. Cell proliferation was monitored in real-time with the continuous presence of indicated treatments until the end of each experiment. Data shown are the means±SD.
The following cell lines were obtained from the American Type Culture Collection (Manassas, VA), where they were regularly authenticated: HCT116 (ATCC Cat #CRL-247, human colon cancer cells) and MiaPaCa-2 (ATCC Cat #CRL-1420, human pancreatic cancer cells). All cells were cultured in a humidified incubator at 37° C. and 5% carbon dioxide. HCT116 cells were maintained in RPMI 1640 medium (Thermo Fisher Scientific, Cat #11875), supplemented with 10% fetal bovine serum. MiaPaCa-2 cells were maintained in Dulbecco's Modified Eagle Medium (Thermo Fisher Scientific, Waltham, MA; Cat #11965) supplemented with 10% fetal bovine serum. All cells were stored in liquid nitrogen and used within 20 passages after thawing.
The IncuCyte Live-Cell Analysis system (Essen Bioscience Inc., Ann Arbor, MI) was used to monitor cell proliferation (Cheng et al., 2013, 2016; Boyle et al., 2018). As shown in previous publications (Cheng et al., 2013, 2016), this imaging system is probe-free and noninvasive, and enables continuous monitoring of cell confluence over several days. The increase in the percentage of cell confluence was used as a surrogate marker of cell proliferation. In a 96-well plate, cells were plated at 1,000 cells per well in triplicates and left to adhere overnight. Cells were then treated with HU and Mito-HUs, and the cell confluency was recorded over several days in the IncuCyte Live-Cell Analysis system.

[3] = test system: HCT116 human colon cancer cells; experiment: Cell proliferation (cell confluence), IncuCyte Live-Cell Analysis system; assay type: cell-based

Structure (SMILES): NC(=O)NOCCCCCCCCCCCC[P+](c1ccccc1)(c1ccccc1)c1ccccc1.O=C([O-])C(F)(F)F [Mito12-HU, 12-[(carbamoylamino)oxy]-dodecyltriphenylphosphonium trifluoroacetate]
- Complex III activity (OCR, % of control) ([1]; 1.5 μM): 74.02 % of control
- Complex III activity (OCR, % of control) ([1]; 2 μM): 55.15 % of control
- Complex III activity (OCR, % of control) ([1]; 2.5 μM): 51.26 % of control
- Complex III activity (OCR, % of control) ([1]; 4 μM): 35.02 % of control
- Complex III activity (OCR, % of control) ([1]; 7.5 μM): 24.56 % of control
- inhibition of proliferation of MiaPaCa-2 cells [2]: increasing antiproliferative potencies

Structure (SMILES): NC(=O)NOCCCCCCCCCCCCCCCC[P+](c1ccccc1)(c1ccccc1)c1ccccc1.O=C([O-])C(F)(F)F [Mito16-HU, 16-[(carbamoylamino)oxy]-hexadecyltriphenylphosphonium trifluoroacetate]
- Complex III activity (OCR, % of control) ([1]; 0.4 μM): 81.38 % of control
- Complex III activity (OCR, % of control) ([1]; 0.5 μM): 79.37 % of control
- Complex III activity (OCR, % of control) ([1]; 0.6 μM): 80.12 % of control
- Complex III activity (OCR, % of control) ([1]; 0.8 μM): 68.47 % of control
- inhibition of proliferation of MiaPaCa-2 cells [2]: increasing antiproliferative potencies

Structure (SMILES): NC(=O)NOCCCCCCCCCCCCCCCCCCCC[P+](c1ccccc1)(c1ccccc1)c1ccccc1.O=C([O-])C(F)(F)F [Mito20-HU, 20-[(carbamoylamino)oxy]-eicosanyltriphenylphosphonium trifluoroacetate]
- Complex III activity (OCR, % of control) ([1]; 0.03 μM): 98.80 % of control
- Complex III activity (OCR, % of control) ([1]; 0.1 μM): 106.63 % of control
- Complex III activity (OCR, % of control) ([1]; 0.2 μM): 101.11 % of control
- Complex III activity (OCR, % of control) ([1]; 0.3 μM): 107.99 % of control
- Complex III activity (OCR, % of control) ([1]; 0.5 μM): 102.43 % of control
- Complex III activity (OCR, % of control) ([1]; 20 μM): 12.77 % of control
- inhibition of proliferation of MiaPaCa-2 cells [2]: increasing antiproliferative potencies

Structure (SMILES): NC(=O)NOCCCCCCCCCC[P+](c1ccccc1)(c1ccccc1)c1ccccc1.O=C([O-])C(F)(F)F [Mito10-HU, 10-[(carbamoylamino)oxy]-decyltriphenylphosphonium trifluoroacetate]
- antiproliferative effect, each alone (AZD-3965 experiment) ([3]; Mito10-HU (5 μM) or AZD-3965 (100 μM) independently, HCT-116): negligible antiproliferative effects
- effect on cell proliferation, each alone (syrosingopine experiment) ([3]; Mito10-HU (5 μM) or syrosingopine (7.5 μM) independently, HCT116): minimally affected cell proliferation
- inhibition of proliferation of MiaPaCa-2 cells [2]: increasing antiproliferative potencies
- potency compared with HU in inhibiting MiaPaCa-2 cell proliferation [2]: ~100 times
